Consider one molecule from BindingDB's records for doi:10.1016/j.bmc.2017.05.049 (Peking University, 2017).

Each structure is given as a SMILES string.

Experiment [1] in a line: Inhibition of trypsin-like activity of 20S proteasome in human HL60 cells using Z-LRRaminoluciferin as substrate pretreated for 2 hrs followed by substrate addition by […] assay.
Experiment [2] in a line: Inhibition of PGPH-like activity of 20S proteasome in human HL60 cells using Z-nLPnLDaminoluciferin as substrate pretreated for 2 hrs followed by substrate addition by […] assay.

`CC(C)C[C@H](NC(=O)OCc1ccccc1)C(=O)N[C@@H](Cc1ccc2ccccc2c1)C(=O)N1CCC[C@H]1B(O)O`: the figures for the half-maximal inhibitory concentration (IC50) in experiment [1] and in experiment [2] were 1.66 µM and 1.25 µM, respectively.

One may read the IC50 as the concentration that inhibits the measured activity by half.
